# Measurements published in patent US7189680B2, “5-halo-6-aryl[1,2,4]triazolo[1,5-a]pyrimidin-7-amines” (Bayer Cropscience AG, priority 2001, dated 2007).
# Test: logP determination by HPLC (EEC directive 79/831 Annex V. A8)
# Format: physicochemical
# Details: HPLC gradient method, acetonitrile/0.1% aqueous phosphoric acid; Table 1
# Description: *) The logP values were determined in accordance with EEC directive 79/831 Annex V. A8 by HPLC (gradient method, acetonitrile/0.1% aqueous phosphoric acid)
row,logP*,SMILES
1,2.72,CC(C)CN(N)c1c(-c2c(F)cccc2F)c(Cl)nc2ncnn12 [Example 170]
2,2.96,CCCCN(N)c1c(-c2c(F)cc(F)cc2F)c(Cl)nc2ncnn12 [Example 132]
3,3.72,CC=NN(CC1CC1(Cl)Cl)c1c(-c2c(F)cc(F)cc2F)c(Cl)nc2ncnn12 (stereo not shown) [Example 167]
4,2.69,CCC(C)ONc1c(-c2ccccc2F)c(Cl)nc2ncnn12 (stereo not shown) [Example 63]
5,3.44,CCC(C)N(N)c1c(-c2cccc(C(F)(F)F)c2Cl)c(Cl)nc2ncnn12 (stereo not shown) [Example 144]
6,2.63,NN(CC1CC1)c1c(-c2c(F)cccc2Cl)c(Cl)nc2ncnn12 [Example 162]
7,2.77,CCCCNNc1c(-c2ccccc2F)c(Cl)nc2ncnn12 [Example 90]
8,3.47,CCC(C)NNc1c(-c2cc(C(F)(F)F)ccc2Cl)c(Cl)nc2ncnn12 (stereo not shown) [Example 149]
9,3.06,NN(CC1CCC1)c1c(-c2c(F)cc(F)cc2F)c(Cl)nc2ncnn12 [Example 169]
10,2.62,CC(C)N(N)c1c(-c2c(F)cc(F)cc2F)c(Cl)nc2ncnn12 [Example 133]
11,3.01,CCCCONc1c(-c2c(F)cc(F)cc2F)c(Cl)nc2ncnn12 [Example 85]
12,3.53,CCC(C)N(N)c1c(-c2cc(C(F)(F)F)ccc2Cl)c(Cl)nc2ncnn12 (stereo not shown) [Example 148]
13,2.19,CN(O)c1c(-c2c(F)cccc2F)c(Cl)nc2ncnn12 [Example 124]
14,3.18,CC(C)CNNc1c(-c2c(Cl)cccc2Cl)c(Cl)nc2ncnn12 [Example 156]
15,3.15,CC(C)CN(N)c1c(-c2ccc(F)cc2Cl)c(Cl)nc2ncnn12 [Example 172]
16,3.99,CCC(C)N(N)c1c(-c2cc(C(F)(F)F)ccc2Cl)c(Cl)nc2ncnn12 (stereo not shown) [Example 146]
17,3.27,Fc1cc(F)c(-c2c(Cl)nc3ncnn3c2NOCc2cccc(Cl)c2)c(F)c1 [Example 82]
18,2.58,CCCN(N)c1c(-c2c(F)cc(F)cc2F)c(Cl)nc2ncnn12 [Example 20]
19,2.43,CON(C)c1c(-c2c(F)cccc2F)c(Cl)nc2ncnn12 [Example 28]

# The next lines start with the compound.
row,SMILES,logP*
1,COC(=O)N(C)Nc1c(-c2ccccc2F)c(Cl)nc2ncnn12 [Example 93],1.8
2,CC(=NNc1c(-c2c(F)cc(F)cc2F)c(Cl)nc2ncnn12)C(F)(F)F [Example 165],3.07
3,Fc1cccc(F)c1-c1c(Cl)nc2ncnn2c1NOCc1cccc(Cl)c1 [Example 46],3.12
4,Fc1c(F)c(F)c(-c2c(Cl)nc3ncnn3c2NOCc2ccccc2Cl)c(F)c1F [Example 116],3.58
5,Fc1cc(F)c(-c2c(Cl)nc3ncnn3c2NOCc2cc(Cl)cc(Cl)c2)c(F)c1 [Example 80],3.73
6,Fc1cc(F)c(-c2c(Cl)nc3ncnn3c2NOCc2cccc(C(F)(F)F)c2)c(F)c1 [Example 84],3.39
7,Fc1c(F)c(F)c(-c2c(Cl)nc3ncnn3c2NOCc2cccc(Cl)c2)c(F)c1F [Example 117],3.64
8,Fc1c(F)c(F)c(-c2c(Cl)nc3ncnn3c2NOC2CCCCO2)c(F)c1F (stereo not shown) [Example 76],3.04
9,Cc1ccc(CONc2c(-c3c(F)cc(F)cc3F)c(Cl)nc3ncnn23)cc1 [Example 13],3.25
10,Fc1c(F)c(F)c(-c2c(Cl)nc3ncnn3c2NOCc2cccc(C(F)(F)F)c2)c(F)c1F [Example 118],3.72
11,CCC(C)ONc1c(-c2c(F)c(F)c(F)c(F)c2F)c(Cl)nc2ncnn12 (stereo not shown) [Example 73],3.33
12,Fc1cc(F)c(-c2c(Cl)nc3ncnn3c2NOCc2ccc(C(F)(F)F)cc2)c(F)c1 [Example 10],3.38
13,Fc1cc(F)c(-c2c(Cl)nc3ncnn3c2NOCOc2ccc(Cl)nc2)c(F)c1 [Example 15],2.43
14,Fc1cc(F)c(-c2c(Cl)nc3ncnn3c2NOCc2ccccc2)c(F)c1 [Example 12],2.92

# Same assay, conditions: HPLC gradient method, acetonitrile/0.1% aqueous phosphoric acid; Table 1; read-out: logP*
row,chromatographic logP,SMILES
1,3.67,NN(CC1CCCCC1)c1c(-c2c(F)cc(F)cc2F)c(Cl)nc2ncnn12 [Example 22]
